From patent US20230085307A1, “PYRIDAZINONE COMPOUND AND HERBICIDE” (NISSAN CHEMICAL CORPORATION, priority 2019, published 2023)

Legend:
late watergrass = experiment: Test Example 1: herbicidal activity, application before weed generation under submerged conditions (Table 16, symbol A); assay type: in vivo, late watergrass (Echinochloa oryzicola); conditions: amount of applied herbicide 320 g/ha
Summary of the method: (§1)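 Alluvial soil was flooded to 4 cm depth, weed seeds were sown mixed and 2.5-leaf rice seedlings were transplanted. On sowing day, the compound's emulsion, diluted in water to a set dose, was applied to the water surface. Plants grew at 25–30 °C and were scored 0–5 after three weeks.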

Japanese bulrush = experiment: Test Example 1: herbicidal activity, application before weed generation under submerged conditions (Table 16, symbol B); assay type: in vivo, Japanese bulrush (Schoenoplectus juncoides); conditions: amount of applied herbicide 320 g/ha
Summary of the method: as §1

oval-leafed pondweed = experiment: Test Example 1: herbicidal activity, application before weed generation under submerged conditions (Table 16, symbol C); assay type: in vivo, oval-leafed pondweed (Monochoria vaginalis); conditions: amount of applied herbicide 320 g/ha
Summary of the method: as §1

barnyard grass [1] = experiment: Test Example 3: herbicidal effect by foliage application, Wagner pot (Table 18, symbol H); assay type: in vivo, barnyard grass (Echinochloa crus-galli); conditions: 320 g/ha
Summary of the method: (§2)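 Plants were sown in alluvial soil held under 0.1–0.5 cm standing water and grown 14 days in a greenhouse at 25–30 °C. An emulsifiable formulation, water-diluted to the set dose, was then sprayed onto the foliage, and effects were scored three weeks later using previously defined criteria.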

Chinese sprangletop = experiment: Test Example 3: herbicidal effect by foliage application, Wagner pot (Table 18, symbol D); assay type: in vivo, chinese sprangletop (Leptochloa chinensis); conditions: 320 g/ha
Summary of the method: as §2

rice flat sedge = experiment: Test Example 3: herbicidal effect by foliage application, Wagner pot (Table 18, symbol E); assay type: in vivo, rice flat sedge (Cyperus iria); conditions: 320 g/ha
Summary of the method: as §2

southern crabgrass [2] = experiment: Test Example 4: herbicidal effect by soil treatment (Table 19, symbol F); assay type: in vivo, southern crabgrass (Digitaria ciliaris); conditions: amount of applied herbicide 320 g/ha
Summary of the method: (§3)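 Seeds were sown in sterilized diluvial soil and covered with about 1.5 cm of soil. An emulsion formulation diluted with water to a predetermined herbicide amount was sprayed evenly onto the soil surface. Plants grew in a greenhouse at 25° C. to 30° C., and the effect was scored three weeks after application using criteria from an earlier test.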

green foxtail [3] = experiment: Test Example 4: herbicidal effect by soil treatment (Table 19, symbol G); assay type: in vivo, green foxtail (Setaria viridis); conditions: amount of applied herbicide 320 g/ha
Summary of the method: as §3

barnyard grass [4] = experiment: Test Example 4: herbicidal effect by soil treatment (Table 19, symbol H); assay type: in vivo, barnyard grass (Echinochloa crus-galli); conditions: amount of applied herbicide 320 g/ha
Summary of the method: as §3

wild oat [5] = experiment: Test Example 4: herbicidal effect by soil treatment (Table 19, symbol I); assay type: in vivo, wild oat (Avena fatua); conditions: amount of applied herbicide 320 g/ha
Summary of the method: as §3

blackgrass [6] = experiment: Test Example 4: herbicidal effect by soil treatment (Table 19, symbol J); assay type: in vivo, blackgrass (Alopecurus myosuroides); conditions: amount of applied herbicide 320 g/ha
Summary of the method: as §3

Italian ryegrass [7] = experiment: Test Example 4: herbicidal effect by soil treatment (Table 19, symbol K); assay type: in vivo, Italian ryegrass (Lolium multiflorum); conditions: amount of applied herbicide 320 g/ha
Summary of the method: as §3

windgrass [8] = experiment: Test Example 4: herbicidal effect by soil treatment (Table 19, symbol L); assay type: in vivo, windgrass (Apera spica-venti); conditions: amount of applied herbicide 320 g/ha
Summary of the method: as §3

velvetleaf [9] = experiment: Test Example 4: herbicidal effect by soil treatment (Table 19, symbol M); assay type: in vivo, velvetleaf (Abutilon theophrasti); conditions: amount of applied herbicide 320 g/ha
Summary of the method: as §3

redroot pigweed [10] = experiment: Test Example 4: herbicidal effect by soil treatment (Table 19, symbol N); assay type: in vivo, redroot pigweed (Amaranthus retroflexus); conditions: amount of applied herbicide 320 g/ha
Summary of the method: as §3

lambsquarters [11] = experiment: Test Example 4: herbicidal effect by soil treatment (Table 19, symbol O); assay type: in vivo, lambsquarters (Chenopodium album); conditions: amount of applied herbicide 320 g/ha
Summary of the method: as §3

chickweed [12] = experiment: Test Example 4: herbicidal effect by soil treatment (Table 19, symbol P); assay type: in vivo, common chickweed (Stellaria media); conditions: amount of applied herbicide 320 g/ha
Summary of the method: as §3

false cleavers = experiment: Test Example 4: herbicidal effect by soil treatment (Table 19, symbol Q); assay type: in vivo, false cleavers (Galium spurium); conditions: amount of applied herbicide 320 g/ha
Summary of the method: as §3

persian speedwell [13] = experiment: Test Example 4: herbicidal effect by soil treatment (Table 19, symbol R); assay type: in vivo, Persian speedwell (Veronica persica); conditions: amount of applied herbicide 320 g/ha
Summary of the method: as §3

southern crabgrass [14] = experiment: Test Example 5: herbicidal effect by foliage application, plastic box (Table 20, symbol F); assay type: in vivo, southern crabgrass (Digitaria ciliaris); conditions: 320 g/ha, foliage application after 14-day growth, evaluated three weeks after application
Summary of the method: (§4)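 Plants sown in sterilized diluvial soil and grown 14 days in a greenhouse at 25° C to 30° C, then sprayed on the foliage with the compound's emulsion diluted in water to a predetermined herbicide amount. Injury to weeds and crops scored three weeks after application on a visual rating scale.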

green foxtail [15] = experiment: Test Example 5: herbicidal effect by foliage application, plastic box (Table 20, symbol G); assay type: in vivo, green foxtail (Setaria viridis); conditions: 320 g/ha, foliage application after 14-day growth, evaluated three weeks after application
Summary of the method: as §4

barnyard grass [16] = experiment: Test Example 5: herbicidal effect by foliage application, plastic box (Table 20, symbol H); assay type: in vivo, barnyard grass (Echinochloa crus-galli); conditions: 320 g/ha, foliage application after 14-day growth, evaluated three weeks after application
Summary of the method: as §4

wild oat [17] = experiment: Test Example 5: herbicidal effect by foliage application, plastic box (Table 20, symbol I); assay type: in vivo, wild oat (Avena fatua); conditions: 320 g/ha, foliage application after 14-day growth, evaluated three weeks after application
Summary of the method: as §4

blackgrass [18] = experiment: Test Example 5: herbicidal effect by foliage application, plastic box (Table 20, symbol J); assay type: in vivo, blackgrass (Alopecurus myosuroides); conditions: 320 g/ha, foliage application after 14-day growth, evaluated three weeks after application
Summary of the method: as §4

Italian ryegrass [19] = experiment: Test Example 5: herbicidal effect by foliage application, plastic box (Table 20, symbol K); assay type: in vivo, Italian ryegrass (Lolium multiflorum); conditions: 320 g/ha, foliage application after 14-day growth, evaluated three weeks after application
Summary of the method: as §4

windgrass [20] = experiment: Test Example 5: herbicidal effect by foliage application, plastic box (Table 20, symbol L); assay type: in vivo, windgrass (Apera spica-venti); conditions: 320 g/ha, foliage application after 14-day growth, evaluated three weeks after application
Summary of the method: as §4

velvetleaf [21] = experiment: Test Example 5: herbicidal effect by foliage application, plastic box (Table 20, symbol M); assay type: in vivo, velvetleaf (Abutilon theophrasti); conditions: 320 g/ha, foliage application after 14-day growth, evaluated three weeks after application
Summary of the method: as §4

redroot pigweed [22] = experiment: Test Example 5: herbicidal effect by foliage application, plastic box (Table 20, symbol N); assay type: in vivo, redroot pigweed (Amaranthus retroflexus); conditions: 320 g/ha, foliage application after 14-day growth, evaluated three weeks after application
Summary of the method: as §4

lambsquarters [23] = experiment: Test Example 5: herbicidal effect by foliage application, plastic box (Table 20, symbol O); assay type: in vivo, lambsquarters (Chenopodium album); conditions: 320 g/ha, foliage application after 14-day growth, evaluated three weeks after application
Summary of the method: as §4

chickweed [24] = experiment: Test Example 5: herbicidal effect by foliage application, plastic box (Table 20, symbol P); assay type: in vivo, common chickweed (Stellaria media); conditions: 320 g/ha, foliage application after 14-day growth, evaluated three weeks after application
Summary of the method: as §4

persian speedwell [25] = experiment: Test Example 5: herbicidal effect by foliage application, plastic box (Table 20, symbol R); assay type: in vivo, Persian speedwell (Veronica persica); conditions: 320 g/ha, foliage application after 14-day growth, evaluated three weeks after application
Summary of the method: as §4

**Q.** With `CSc1ccc(-c2sc3c(F)cccc3c2-c2c(O)c(C)nn(C)c2=O)cc1` [4-050] as the compound, how does the “Herbicidal effect, A: late watergrass” value (late watergrass) read?
**A.** The value was 3 (Herbicidal rate of 40% or more and less than 70%).

**Q.** What about the “Herbicidal effect, B: Japanese bulrush” value (Japanese bulrush) of the same compound?
**A.** Its value is 0 (Herbicidal rate of 5% or less (almost no effect)).

**Q.** And the “Herbicidal effect, C: oval-leafed pondweed” value (oval-leafed pondweed)?
**A.** Its value is 0 (Herbicidal rate of 5% or less (almost no effect)).

**Q.** What about the “herbicidal effect on barnyard grass (H)” value (barnyard grass [1]) of the same compound?
**A.** Its value is 5 (Herbicidal rate of 90% or more (almost completely withered)).

**Q.** What about the “herbicidal effect on Chinese sprangletop (D)” value (Chinese sprangletop) of the same compound?
**A.** The value was 4 (Herbicidal rate of 70% or more and less than 90%).

**Q.** And the “herbicidal effect on rice flat sedge (E)” value (rice flat sedge)?
**A.** Its value is 4 (Herbicidal rate of 70% or more and less than 90%).

**Q.** What about the “Herbicidal effect by soil treatment, F: southern crabgrass” value (southern crabgrass [2]) of the same compound?
**A.** Its value is 2 (Herbicidal rate of 20% or more and less than 40%).

**Q.** And the “Herbicidal effect by soil treatment, G: green foxtail” value (green foxtail [3])?
**A.** Its value is 3 (Herbicidal rate of 40% or more and less than 70%).

**Q.** And the “Herbicidal effect by soil treatment, H: barnyard grass” value (barnyard grass [4])?
**A.** Its value is 2 (Herbicidal rate of 20% or more and less than 40%).

**Q.** What about the “Herbicidal effect by soil treatment, I: wild oat” value (wild oat [5]) of the same compound?
**A.** The value was 0 (Herbicidal rate of 5% or less (almost no effect)).

**Q.** And the “Herbicidal effect by soil treatment, J: blackgrass” value (blackgrass [6])?
**A.** Its value is 0 (Herbicidal rate of 5% or less (almost no effect)).

**Q.** And the “Herbicidal effect by soil treatment, K: Italian ryegrass” value (Italian ryegrass [7])?
**A.** The value was 1 (Herbicidal rate of 5% or more and less than 20%).

**Q.** And the “Herbicidal effect by soil treatment, L: windgrass” value (windgrass [8])?
**A.** The value was 0 (Herbicidal rate of 5% or less (almost no effect)).

**Q.** And the “Herbicidal effect by soil treatment, M: velvetleaf” value (velvetleaf [9])?
**A.** Its value is 3 (Herbicidal rate of 40% or more and less than 70%).

**Q.** What about the “Herbicidal effect by soil treatment, N: redroot pigweed” value (redroot pigweed [10]) of the same compound?
**A.** The value was 4 (Herbicidal rate of 70% or more and less than 90%).

**Q.** What about the “Herbicidal effect by soil treatment, O: lambsquarters” value (lambsquarters [11]) of the same compound?
**A.** Its value is 3 (Herbicidal rate of 40% or more and less than 70%).

**Q.** What about the “Herbicidal effect by soil treatment, P: chickweed” value (chickweed [12]) of the same compound?
**A.** The value was 4 (Herbicidal rate of 70% or more and less than 90%).

**Q.** And the “Herbicidal effect by soil treatment, Q: false cleavers” value (false cleavers)?
**A.** Its value is 0 (Herbicidal rate of 5% or less (almost no effect)).

**Q.** What about the “Herbicidal effect by soil treatment, R: persian speedwell” value (persian speedwell [13]) of the same compound?
**A.** The value was 4 (Herbicidal rate of 70% or more and less than 90%).

**Q.** And the “herbicidal effect on F: southern crabgrass (evaluation grade 0-5)” value (southern crabgrass [14])?
**A.** Its value is 2 (Herbicidal rate of 20% or more and less than 40%).

**Q.** And the “herbicidal effect on G: green foxtail (evaluation grade 0-5)” value (green foxtail [15])?
**A.** Its value is 5 (Herbicidal rate of 90% or more (almost completely withered)).

**Q.** And the “herbicidal effect on H: barnyard grass (evaluation grade 0-5)” value (barnyard grass [16])?
**A.** The value was 5 (Herbicidal rate of 90% or more (almost completely withered)).

**Q.** What about the “herbicidal effect on I: wild oat (evaluation grade 0-5)” value (wild oat [17]) of the same compound?
**A.** Its value is 1 (Herbicidal rate of 5% or more and less than 20%).

**Q.** What about the “herbicidal effect on J: blackgrass (evaluation grade 0-5)” value (blackgrass [18]) of the same compound?
**A.** Its value is 3 (Herbicidal rate of 40% or more and less than 70%).

**Q.** And the “herbicidal effect on K: Italian ryegrass (evaluation grade 0-5)” value (Italian ryegrass [19])?
**A.** Its value is 4 (Herbicidal rate of 70% or more and less than 90%).

**Q.** And the “herbicidal effect on L: windgrass (evaluation grade 0-5)” value (windgrass [20])?
**A.** Its value is 5 (Herbicidal rate of 90% or more (almost completely withered)).

**Q.** And the “herbicidal effect on M: velvetleaf (evaluation grade 0-5)” value (velvetleaf [21])?
**A.** The value was 5 (Herbicidal rate of 90% or more (almost completely withered)).

**Q.** And the “herbicidal effect on N: redroot pigweed (evaluation grade 0-5)” value (redroot pigweed [22])?
**A.** The value was 5 (Herbicidal rate of 90% or more (almost completely withered)).

**Q.** What about the “herbicidal effect on O: lambsquarters (evaluation grade 0-5)” value (lambsquarters [23]) of the same compound?
**A.** The value was 5 (Herbicidal rate of 90% or more (almost completely withered)).

**Q.** What about the “herbicidal effect on P: chickweed (evaluation grade 0-5)” value (chickweed [24]) of the same compound?
**A.** The value was 5 (Herbicidal rate of 90% or more (almost completely withered)).

**Q.** What about the “herbicidal effect on R: persian speedwell (evaluation grade 0-5)” value (persian speedwell [25]) of the same compound?
**A.** Its value is 5 (Herbicidal rate of 90% or more (almost completely withered)).
